{"source": "the supplement of paper PMC11208160"}
{"experiment": "recombinant barcode read abundance after kanamycin selection (control-corrected) (log10(CPM+1)); higher = more efficient recombination; sequences stand for … in AGTGCAGAGAAAATCGGCCAGTTTTCTCTGCCTGCAGTCCGCATGCCGT…AGATTTATGCAGCGGACTGCCTTTCTCCCAAAGTGATAAACCGGACAGTATCATGGACCGGTTTTCCCGGTAATCCGTATTTGCAAGGTTGGTTTCACT; site = the 11-nt target", "how_it_was_run": "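Oligos holding a promoter, target, barcode and the J23119-driven first 104 bases of the bridge RNA were Gibson-cloned into a vector that supplied the other 73 bp plus a T7-inducible recombinase. This library was co-electroporated with a donor plasmid into E. coli. Two replicates went on chloramphenicol/ampicillin LB agar (control) and two on chloramphenicol/ampicillin/kanamycin with 0.1 mM IPTG. Recombination efficiency is read from averaged, control-corrected barcode counts per million at recombinant junctions, reported as log10(CPM+1).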"}
{"sequence": "CTACTAACTTGGGTTCTAACCTGTTGCAT (site CTACTAACTAA)", "recombinant barcode read abundance (log10)": 0.173}
{"sequence": "CTACTAACTTGGGTTCTAACCTGTTGCAT (site CTACTAACTAC)", "recombinant barcode read abundance (log10)": 0.149}
{"sequence": "CTACTAACTTGGGTTCTAACCTGTTGCAT (site CTACTAACTAG)", "recombinant barcode read abundance (log10)": 0.268}
{"sequence": "CTACTAACTTGGGTTCTAACCTGTTGCAT (site CTACTAACTAT)", "recombinant barcode read abundance (log10)": 1.34}
{"sequence": "CTACTAACTTGGGTTCTAACCTGTTGCTT (site CTACTAACTAA)", "recombinant barcode read abundance (log10)": 0.316}
{"sequence": "CTACTAACTTGGGTTCTAACCTGTTGCTT (site CTACTAACTAC)", "recombinant barcode read abundance (log10)": 0.0509}
{"sequence": "CTACTAACTTGGGTTCTAACCTGTTGCTT (site CTACTAACTAG)", "recombinant barcode read abundance (log10)": 0.0714}
{"sequence": "CTACTAACTTGGGTTCTAACCTGTTGCTT (site CTACTAACTAT)", "recombinant barcode read abundance (log10)": 0.0517}
{"sequence": "CTACTAGCTTGGGTTCTAACCTGTTGCAA (site CTACTAGCTAT)", "recombinant barcode read abundance (log10)": 0.196}
{"sequence": "CTACTAGCTTGGGTTCTAACCTGTTGCAA (site CTACTAGCTCT)", "recombinant barcode read abundance (log10)": 0.617}
{"sequence": "CTACTAGCTTGGGTTCTAACCTGTTGCAA (site CTACTAGCTGT)", "recombinant barcode read abundance (log10)": 0.0288}
{"sequence": "CTACTAGCTTGGGTTCTAACCTGTTGCAA (site CTACTAGCTTT)", "recombinant barcode read abundance (log10)": 1.25}
{"sequence": "CTAGACACTTGGGTTCTAACCTGTTGCGG (site CTAGACACTCC)", "recombinant barcode read abundance (log10)": 2.14}
{"sequence": "CTAGACACTTGGGTTCTAACCTGTTGCGG (site CTGGTCACTCC)", "recombinant barcode read abundance (log10)": 0.0881}
{"sequence": "CTAGACCCTTGGGTTCTAACCTGTTGCCT (site ATAGACCCTAG)", "recombinant barcode read abundance (log10)": 0.347}
{"sequence": "CTAGACCCTTGGGTTCTAACCTGTTGCCT (site CTAGACCCTAG)", "recombinant barcode read abundance (log10)": 1.95}
{"sequence": "CTAGACCCTTGGGTTCTAACCTGTTGCCT (site GTAGACCCTAG)", "recombinant barcode read abundance (log10)": 0.223}
{"sequence": "CTAGACCCTTGGGTTCTAACCTGTTGCCT (site TTAGACCCTAG)", "recombinant barcode read abundance (log10)": 0.0677}
{"sequence": "CTAGACTCTTGGGTTCTAACCTGTTGCTG (site CTAGACTCTAA)", "recombinant barcode read abundance (log10)": 0.136}
{"sequence": "CTAGACTCTTGGGTTCTAACCTGTTGCTG (site CTAGACTCTCA)", "recombinant barcode read abundance (log10)": 2.73}
{"sequence": "CTAGACTCTTGGGTTCTAACCTGTTGCTG (site CTAGACTCTGA)", "recombinant barcode read abundance (log10)": 0.076}
{"sequence": "CTAGACTCTTGGGTTCTAACCTGTTGCTG (site CTAGACTCTTA)", "recombinant barcode read abundance (log10)": 0.188}
{"sequence": "CTAGCCTCTTGGGTTCTAACCTGTTGCAT (site CTAACCTCTAT)", "recombinant barcode read abundance (log10)": 0.739}
{"sequence": "CTAGCCTCTTGGGTTCTAACCTGTTGCAT (site CTACCCTCTAT)", "recombinant barcode read abundance (log10)": 0.582}
{"sequence": "CTAGCCTCTTGGGTTCTAACCTGTTGCAT (site CTAGCCTCTAT)", "recombinant barcode read abundance (log10)": 2.38}
{"sequence": "CTAGCCTCTTGGGTTCTAACCTGTTGCAT (site CTATCCTCTAT)", "recombinant barcode read abundance (log10)": 0.0542}
{"sequence": "CTAGCGACTTGGGTTCTAACCTGTTGCTG (site CTAGCCACTTA)", "recombinant barcode read abundance (log10)": 0}
{"sequence": "CTAGCGACTTGGGTTCTAACCTGTTGCTG (site CTAGCGACTCA)", "recombinant barcode read abundance (log10)": 0.287}
{"sequence": "CTAGGAGCTTGGGTTCTAACCTGTTGCGT (site CTAGAAGCTAC)", "recombinant barcode read abundance (log10)": 1.84}
{"sequence": "CTAGGAGCTTGGGTTCTAACCTGTTGCGT (site CTAGGAGCTAC)", "recombinant barcode read abundance (log10)": 2.12}
{"sequence": "CTAGGATCTTGGGTTCTAACCTGTTGCGT (site CTAGGATCTAC)", "recombinant barcode read abundance (log10)": 2.77}
{"sequence": "CTAGGATCTTGGGTTCTAACCTGTTGCGT (site CTAGTCTCTAC)", "recombinant barcode read abundance (log10)": 0.152}
{"sequence": "CTAGGCCCTTGGGTTCTAACCTGTTGCAT (site CTAGGCCCTAA)", "recombinant barcode read abundance (log10)": 0.379}
{"sequence": "CTAGGCCCTTGGGTTCTAACCTGTTGCAT (site CTAGGCCCTAC)", "recombinant barcode read abundance (log10)": 1.97}
{"sequence": "CTAGGCCCTTGGGTTCTAACCTGTTGCAT (site CTAGGCCCTAG)", "recombinant barcode read abundance (log10)": 0.318}
{"sequence": "CTAGGCCCTTGGGTTCTAACCTGTTGCAT (site CTAGGCCCTAT)", "recombinant barcode read abundance (log10)": 2.77}
{"sequence": "CTAGTAGCTTGGGTTCTAACCTGTTGCTC (site CTAGTAGCTGA)", "recombinant barcode read abundance (log10)": 1.74}
{"sequence": "CTAGTAGCTTGGGTTCTAACCTGTTGCTC (site GTAGCAGCTGA)", "recombinant barcode read abundance (log10)": 0.331}
{"sequence": "CTAGTCACTTGGGTTCTAACCTGTTGCAC (site CTAGTCACTGT)", "recombinant barcode read abundance (log10)": 2.81}
{"sequence": "CTAGTCACTTGGGTTCTAACCTGTTGCAC (site CTAGTGTCTGT)", "recombinant barcode read abundance (log10)": 0.0438}
{"sequence": "CTAGTTGCTTGGGTTCTAACCTGTTGCAA (site CTAATTGCTTT)", "recombinant barcode read abundance (log10)": 0.0799}
{"sequence": "CTAGTTGCTTGGGTTCTAACCTGTTGCAA (site CTACTTGCTTT)", "recombinant barcode read abundance (log10)": 0.229}
{"sequence": "CTAGTTGCTTGGGTTCTAACCTGTTGCAA (site CTAGTTGCTTT)", "recombinant barcode read abundance (log10)": 0.328}
{"sequence": "CTAGTTGCTTGGGTTCTAACCTGTTGCAA (site CTATTTGCTTT)", "recombinant barcode read abundance (log10)": 0.0786}
{"sequence": "CTATAGACTTGGGTTCTAACCTGTTGCCA (site CTATAGACTTG)", "recombinant barcode read abundance (log10)": 0.079}
{"sequence": "CTATAGACTTGGGTTCTAACCTGTTGCCA (site CTCTAGACTAG)", "recombinant barcode read abundance (log10)": 0.206}
{"sequence": "CTATCGACTTGGGTTCTAACCTGTTGCCT (site CTATAGACTAG)", "recombinant barcode read abundance (log10)": 0.0416}
{"sequence": "CTATCGACTTGGGTTCTAACCTGTTGCCT (site CTATCGACTAG)", "recombinant barcode read abundance (log10)": 0.766}
{"sequence": "CTATCGACTTGGGTTCTAACCTGTTGCCT (site CTATGGACTAG)", "recombinant barcode read abundance (log10)": 0.163}
{"sequence": "CTATCGACTTGGGTTCTAACCTGTTGCCT (site CTATTGACTAG)", "recombinant barcode read abundance (log10)": 0.0575}
{"sequence": "CTATCGTCTTGGGTTCTAACCTGTTGCCT (site ATATCGTCTAG)", "recombinant barcode read abundance (log10)": 0.0956}
{"sequence": "CTATCGTCTTGGGTTCTAACCTGTTGCCT (site CTATCGTCTAG)", "recombinant barcode read abundance (log10)": 1.22}
{"sequence": "CTATGCCCTTGGGTTCTAACCTGTTGCTA (site CTATGCCCTTA)", "recombinant barcode read abundance (log10)": 1.16}
{"sequence": "CTATGCCCTTGGGTTCTAACCTGTTGCTA (site CTATGCCCTTC)", "recombinant barcode read abundance (log10)": 0.179}
{"sequence": "CTATGGACTTGGGTTCTAACCTGTTGCAC (site CTATGGACTAT)", "recombinant barcode read abundance (log10)": 0.132}
{"sequence": "CTATGGACTTGGGTTCTAACCTGTTGCAC (site CTATGGACTCT)", "recombinant barcode read abundance (log10)": 0.242}
{"sequence": "CTATGGACTTGGGTTCTAACCTGTTGCAC (site CTATGGACTGT)", "recombinant barcode read abundance (log10)": 1.3}
{"sequence": "CTATGGACTTGGGTTCTAACCTGTTGCAC (site CTATGGACTTT)", "recombinant barcode read abundance (log10)": 0.0443}
{"sequence": "CTATGGACTTGGGTTCTAACCTGTTGCCT (site CTATAGACTAG)", "recombinant barcode read abundance (log10)": 0.398}
{"sequence": "CTATGGACTTGGGTTCTAACCTGTTGCCT (site CTATCGACTAG)", "recombinant barcode read abundance (log10)": 0.196}
{"sequence": "CTATGGACTTGGGTTCTAACCTGTTGCCT (site CTATGGACTAG)", "recombinant barcode read abundance (log10)": 0.872}
{"sequence": "CTATGGACTTGGGTTCTAACCTGTTGCCT (site CTATTGACTAG)", "recombinant barcode read abundance (log10)": 0.027}
{"sequence": "CTATTAGCTTGGGTTCTAACCTGTTGCCG (site CTAGTAGCTCG)", "recombinant barcode read abundance (log10)": 0.418}
{"sequence": "CTATTAGCTTGGGTTCTAACCTGTTGCCG (site CTATTAGCTCG)", "recombinant barcode read abundance (log10)": 0.725}
{"sequence": "CTATTGTCTTGGGTTCTAACCTGTTGCGA (site CTATTGTCTAC)", "recombinant barcode read abundance (log10)": 0.0206}
{"sequence": "CTATTGTCTTGGGTTCTAACCTGTTGCGA (site CTATTGTCTCC)", "recombinant barcode read abundance (log10)": 0.165}
{"sequence": "CTATTGTCTTGGGTTCTAACCTGTTGCGA (site CTATTGTCTGC)", "recombinant barcode read abundance (log10)": 0.0565}
{"sequence": "CTATTGTCTTGGGTTCTAACCTGTTGCGA (site CTATTGTCTTC)", "recombinant barcode read abundance (log10)": 2.4}
{"sequence": "CTCAAAGCTTGGGTTCTAACCTGTTGCCG (site CTCAAAGCTCG)", "recombinant barcode read abundance (log10)": 0.258}
{"sequence": "CTCAAAGCTTGGGTTCTAACCTGTTGCCG (site TAGTCCACTGC)", "recombinant barcode read abundance (log10)": 0.196}
{"sequence": "CTCAAAGCTTGGGTTCTAACCTGTTGCGA (site CTCAAAGCTTC)", "recombinant barcode read abundance (log10)": 1.38}
{"sequence": "CTCAAAGCTTGGGTTCTAACCTGTTGCGA (site GGGGTCCCTAA)", "recombinant barcode read abundance (log10)": 0.189}
{"sequence": "CTCAAGGCTTGGGTTCTAACCTGTTGCGT (site CTCAAGGCTAC)", "recombinant barcode read abundance (log10)": 1.6}
{"sequence": "CTCAAGGCTTGGGTTCTAACCTGTTGCGT (site CTCCAGGCTCC)", "recombinant barcode read abundance (log10)": 0.128}
{"sequence": "CTCACACCTTGGGTTCTAACCTGTTGCCT (site ATCACACCTAG)", "recombinant barcode read abundance (log10)": 0.386}
{"sequence": "CTCACACCTTGGGTTCTAACCTGTTGCCT (site CTCACACCTAG)", "recombinant barcode read abundance (log10)": 0.931}
{"sequence": "CTCACACCTTGGGTTCTAACCTGTTGCTT (site CTCAAACCTAA)", "recombinant barcode read abundance (log10)": 0.257}
{"sequence": "CTCACACCTTGGGTTCTAACCTGTTGCTT (site CTCACACCTAA)", "recombinant barcode read abundance (log10)": 0.328}
{"sequence": "CTCACGACTTGGGTTCTAACCTGTTGCAG (site CTCACGACTCT)", "recombinant barcode read abundance (log10)": 0.273}
{"sequence": "CTCACGACTTGGGTTCTAACCTGTTGCAG (site GAATGAGCTAG)", "recombinant barcode read abundance (log10)": 0.245}
{"sequence": "CTCAGGTCTTGGGTTCTAACCTGTTGCCT (site CTCAGGTCTAG)", "recombinant barcode read abundance (log10)": 1.01}
{"sequence": "CTCAGGTCTTGGGTTCTAACCTGTTGCCT (site CTCAGGTCTTG)", "recombinant barcode read abundance (log10)": 0.197}
{"sequence": "CTCATACCTTGGGTTCTAACCTGTTGCGT (site CTAATACCTAC)", "recombinant barcode read abundance (log10)": 0.151}
{"sequence": "CTCATACCTTGGGTTCTAACCTGTTGCGT (site CTCATACCTAC)", "recombinant barcode read abundance (log10)": 1.92}
{"sequence": "CTCATAGCTTGGGTTCTAACCTGTTGCGA (site CTCATAGCTTC)", "recombinant barcode read abundance (log10)": 1.06}
{"sequence": "CTCATAGCTTGGGTTCTAACCTGTTGCGA (site TGAGGGACTAG)", "recombinant barcode read abundance (log10)": 0.0808}
